In ChEMBL document CHEMBL4257571, “Discovery of 5-(2-chloro-4'-(1H-imidazol-1-yl)-[1,1'-biphenyl]-4-yl)-1H-tetrazole as potent and orally efficacious S-nitrosoglutathione reductase (GSNOR) inhibitors for the potential treatment of COPD” (Bioorg Med Chem Lett, 2018):

Tests used:
[1] = target: T1, Alcohol dehydrogenase class-3 (Homo sapiens, UniProt P11766); test: Inhibition of human GSNOR assessed as reduction in NADH consumption after 3 mins by spectrophotometric analysis
Target sequence in this assay (P11766 whole entry): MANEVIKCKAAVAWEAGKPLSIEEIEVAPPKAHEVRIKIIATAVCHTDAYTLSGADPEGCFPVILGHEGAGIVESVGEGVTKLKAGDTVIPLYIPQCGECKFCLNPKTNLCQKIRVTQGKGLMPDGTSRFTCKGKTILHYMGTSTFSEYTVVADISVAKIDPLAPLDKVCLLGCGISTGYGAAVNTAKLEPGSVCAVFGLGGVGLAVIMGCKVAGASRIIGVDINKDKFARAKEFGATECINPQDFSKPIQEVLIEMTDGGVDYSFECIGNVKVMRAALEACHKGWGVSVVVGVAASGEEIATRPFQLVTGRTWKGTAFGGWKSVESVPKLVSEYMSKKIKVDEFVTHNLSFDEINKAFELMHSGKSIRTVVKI

CYP2C9 = CYP2C9 (Homo sapiens, UniProt P11712); test: Inhibition of CYP2C9 in human liver microsomes at 10 uM after 20 mins in presence of NADPH by LC/MS/MS analysis relative to control; type: ADME
Sequence of CYP2C9 (P11712 whole entry): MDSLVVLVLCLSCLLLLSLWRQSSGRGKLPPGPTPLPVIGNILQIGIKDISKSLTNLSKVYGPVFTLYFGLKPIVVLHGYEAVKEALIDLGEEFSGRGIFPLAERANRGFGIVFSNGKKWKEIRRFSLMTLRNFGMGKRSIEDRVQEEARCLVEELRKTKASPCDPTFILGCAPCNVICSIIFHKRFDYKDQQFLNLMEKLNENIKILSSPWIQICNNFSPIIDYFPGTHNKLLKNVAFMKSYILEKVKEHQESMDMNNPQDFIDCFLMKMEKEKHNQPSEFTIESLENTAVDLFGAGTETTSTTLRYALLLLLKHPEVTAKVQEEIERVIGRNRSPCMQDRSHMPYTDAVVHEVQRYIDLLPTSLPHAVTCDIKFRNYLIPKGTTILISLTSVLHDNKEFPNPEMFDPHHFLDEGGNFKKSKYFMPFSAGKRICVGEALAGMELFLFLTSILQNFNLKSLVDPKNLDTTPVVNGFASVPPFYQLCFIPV

CYP2D6 = CYP2D6 (Homo sapiens, UniProt P10635); test: (§1) Inhibition of CYP2D6 in human liver microsomes at 10 uM after 20 mins in presence of NADPH by LC/MS/MS analysis relative to control; type: ADME; settings: liver microsomes
Sequence of CYP2D6 (P10635 whole entry): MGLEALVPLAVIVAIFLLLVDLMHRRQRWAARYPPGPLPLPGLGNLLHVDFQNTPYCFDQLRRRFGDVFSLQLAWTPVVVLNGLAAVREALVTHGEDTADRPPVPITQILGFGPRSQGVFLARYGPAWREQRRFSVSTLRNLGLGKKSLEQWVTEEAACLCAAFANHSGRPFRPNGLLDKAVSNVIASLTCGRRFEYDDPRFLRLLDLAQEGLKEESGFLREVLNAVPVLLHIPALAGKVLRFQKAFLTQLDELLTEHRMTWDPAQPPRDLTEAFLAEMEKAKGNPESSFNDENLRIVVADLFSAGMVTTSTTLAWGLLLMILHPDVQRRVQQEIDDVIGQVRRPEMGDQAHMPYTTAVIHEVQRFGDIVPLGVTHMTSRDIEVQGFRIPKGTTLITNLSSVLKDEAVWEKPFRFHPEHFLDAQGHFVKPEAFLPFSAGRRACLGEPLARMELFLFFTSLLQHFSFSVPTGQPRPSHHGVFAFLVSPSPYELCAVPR

CYP3A4 = CYP3A4 (Homo sapiens, UniProt P08684); test: (§2) Inhibition of CYP3A4 in human liver microsomes at 10 uM after 20 mins in presence of NADPH by LC/MS/MS analysis relative to control; type: ADME; settings: liver microsomes
Sequence of CYP3A4 (P08684 whole entry): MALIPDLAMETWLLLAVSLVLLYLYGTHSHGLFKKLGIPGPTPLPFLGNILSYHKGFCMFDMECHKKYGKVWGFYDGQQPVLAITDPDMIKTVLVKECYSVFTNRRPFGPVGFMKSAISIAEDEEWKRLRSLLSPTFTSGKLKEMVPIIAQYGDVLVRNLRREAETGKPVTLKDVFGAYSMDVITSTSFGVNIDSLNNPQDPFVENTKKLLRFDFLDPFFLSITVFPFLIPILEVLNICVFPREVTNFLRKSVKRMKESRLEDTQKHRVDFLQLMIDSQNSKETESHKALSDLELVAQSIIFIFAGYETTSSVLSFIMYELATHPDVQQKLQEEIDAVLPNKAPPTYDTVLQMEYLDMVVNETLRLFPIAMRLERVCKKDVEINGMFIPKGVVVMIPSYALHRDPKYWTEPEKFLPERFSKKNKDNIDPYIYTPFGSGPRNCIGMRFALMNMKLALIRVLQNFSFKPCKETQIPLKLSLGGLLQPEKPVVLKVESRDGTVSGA

CYP1A2 = target: T2, CYP1A2 (Homo sapiens, UniProt P05177); test: (§3) Inhibition of CYP1A2 in human liver microsomes at 10 uM after 20 mins in presence of NADPH by LC/MS/MS analysis relative to control; type: ADME; settings: liver microsomes
T2 sequence (P05177 whole entry): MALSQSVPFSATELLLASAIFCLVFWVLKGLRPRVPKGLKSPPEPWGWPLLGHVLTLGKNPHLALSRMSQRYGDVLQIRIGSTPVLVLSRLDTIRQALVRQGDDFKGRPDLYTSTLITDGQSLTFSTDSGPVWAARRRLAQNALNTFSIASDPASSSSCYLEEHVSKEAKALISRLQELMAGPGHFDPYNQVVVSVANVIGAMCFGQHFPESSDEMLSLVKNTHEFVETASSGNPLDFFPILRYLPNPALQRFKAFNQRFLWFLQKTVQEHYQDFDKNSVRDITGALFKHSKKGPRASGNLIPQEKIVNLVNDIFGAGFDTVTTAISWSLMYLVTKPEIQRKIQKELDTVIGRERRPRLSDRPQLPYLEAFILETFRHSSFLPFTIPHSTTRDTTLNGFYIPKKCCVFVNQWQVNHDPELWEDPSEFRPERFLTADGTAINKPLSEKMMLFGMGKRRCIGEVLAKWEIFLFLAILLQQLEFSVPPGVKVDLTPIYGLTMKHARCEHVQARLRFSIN

[2] = Metabolic stability of rat liver microsomes assessed as parent compound remaining at 0.1 uM after 60 mins in presence of NADPH by LC/MS/MS analysis; type: ADME, microsome; settings: read-out: Stability
CYP2C19 = CYP2C19 (Homo sapiens, UniProt P33261); test: Inhibition of CYP2C19 in human liver microsomes at 10 uM after 40 mins in presence of NADPH by LC/MS/MS analysis relative to control; type: ADME
Sequence of CYP2C19 (P33261 whole entry): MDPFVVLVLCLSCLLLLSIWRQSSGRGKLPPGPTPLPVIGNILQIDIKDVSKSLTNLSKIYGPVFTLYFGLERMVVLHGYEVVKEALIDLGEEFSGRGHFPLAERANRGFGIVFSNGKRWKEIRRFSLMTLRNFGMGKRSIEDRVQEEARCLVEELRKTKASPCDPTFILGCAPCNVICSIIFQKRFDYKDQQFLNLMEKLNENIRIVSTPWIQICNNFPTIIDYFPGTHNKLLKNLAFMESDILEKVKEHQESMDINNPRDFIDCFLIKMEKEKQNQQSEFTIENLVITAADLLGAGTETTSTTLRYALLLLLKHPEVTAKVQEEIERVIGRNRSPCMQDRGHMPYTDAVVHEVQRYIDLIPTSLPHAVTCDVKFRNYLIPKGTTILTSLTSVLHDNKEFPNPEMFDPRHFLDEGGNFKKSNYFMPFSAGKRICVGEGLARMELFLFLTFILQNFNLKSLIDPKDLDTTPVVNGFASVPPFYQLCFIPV

[3] = Metabolic stability of human liver microsomes assessed as parent compound remaining at 0.1 uM after 60 mins in presence of NADPH by LC/MS/MS analysis; type: ADME, microsome; settings: read-out: Stability
[4] = Metabolic stability of mouse liver microsomes assessed as parent compound remaining at 0.1 uM after 60 mins in presence of NADPH by LC/MS/MS analysis; type: ADME, microsome; settings: read-out: Stability
[5] = target: T1, Alcohol dehydrogenase class-3; test: Inhibition of human GSNOR assessed as reduction in NADH consumption at 10 uM after 3 mins by spectrophotometric analysis relative to control
Target sequence in this assay (P11766 2-374 limits assumed): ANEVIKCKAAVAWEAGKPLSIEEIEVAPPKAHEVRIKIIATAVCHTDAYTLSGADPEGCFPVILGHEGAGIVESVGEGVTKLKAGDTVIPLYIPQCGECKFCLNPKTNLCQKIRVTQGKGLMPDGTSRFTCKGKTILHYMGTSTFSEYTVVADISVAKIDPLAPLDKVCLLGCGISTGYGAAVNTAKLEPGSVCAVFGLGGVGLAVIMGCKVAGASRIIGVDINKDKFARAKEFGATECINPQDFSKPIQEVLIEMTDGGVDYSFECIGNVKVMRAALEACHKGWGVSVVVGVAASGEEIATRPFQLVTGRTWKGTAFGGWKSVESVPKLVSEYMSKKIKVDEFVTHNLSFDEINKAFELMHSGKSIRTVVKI

[6] = AUC (0 to 24 hrs) in C57/BL6 mouse at 30 mg/kg, po; type: ADME, organism-based; set-up: time < 24 hr, dose 30 mg/kg, route oral; settings: in vivo
[7] = Half life in C57/BL6 mouse at 3 mg/kg, iv; type: ADME, organism-based; settings: in vivo
[8] = Volume of distribution in C57/BL6 mouse at 3 mg/kg, iv; type: ADME, organism-based; settings: in vivo, read-out: Vz
[9] = Ratio of drug uptake in lung to plasma of C57/BL6 mouse at 3 mg/kg, iv or 30 mg/kg, po; type: ADME, organism-based
[10] = Oral bioavailability in C57/BL6 mouse at 30 mg/kg; type: ADME, organism-based; settings: in vivo
[11] = Clearance in C57/BL6 mouse at 3 mg/kg, iv; type: ADME, organism-based; settings: in vivo
[12] = Half life in C57/BL6 mouse at 30 mg/kg, po; type: ADME, organism-based; settings: in vivo
[13] = Tmax in C57/BL6 mouse at 30 mg/kg, po; type: ADME, organism-based; settings: in vivo
[14] = Cmax in C57/BL6 mouse at 30 mg/kg, po; type: ADME, organism-based; set-up: dose 30 mg/kg, route oral; settings: in vivo
Cytochrome P450 2D6 = Cytochrome P450 2D6 (Homo sapiens, UniProt P10635); test: as §1; type: ADME; settings: microsomes, 20 min, 10 µM
Sequence of Cytochrome P450 2D6 (P10635 whole entry): as the sequence (P10635 whole entry) above

Cytochrome P450 3A4 = Cytochrome P450 3A4 (Homo sapiens, UniProt P08684); test: as §2; type: ADME; settings: microsomes, 20 min, 10 µM
Sequence of Cytochrome P450 3A4 (P08684 whole entry): as the sequence (P08684 whole entry) above

Cytochrome P450 1A2 = target: T3, Cytochrome P450 1A2 (Homo sapiens, UniProt P05177); test: as §3; type: ADME; settings: microsomes, 20 min, 10 µM
T3 sequence (P05177 whole entry): T2 sequence (P05177 whole entry)

Structure (SMILES) | IC50 [1] [nM] | inhibition at 20 min, 10 µM (CYP2C9) [%] | inhibition at 20 min, 10 µM (CYP2D6) [%] | inhibition at 20 min, 10 µM (CYP3A4) [%] | inhibition at 20 min, 10 µM (CYP1A2) [%] | remaining at 1 h, 0.1 µM [2] [%] | inhibition at 40 min, 10 µM (CYP2C19) [%] | remaining at 1 h, 0.1 µM [3] [%] | remaining at 1 h, 0.1 µM [4] [%] | also measured
Clc1cc(-c2nn[nH]n2)ccc1-c1ccc(-n2cnnc2)cc1 | 593 | – | – | – | – | – | – | – | – | –
Cc1nccn1-c1ccc(-c2ccc(-c3nnn[nH]3)cc2Cl)cc1 | 37 | – | – | – | – | – | – | – | – | –
O=C(O)c1ccc(-c2ccc(-n3ccnc3)cc2)c(C(F)(F)F)c1 | 38 | – | – | – | – | – | – | – | – | –
Clc1cc(-n2ccnc2)ccc1-c1ccc(-c2nnn[nH]2)cc1 | 22 | – | – | – | – | – | – | – | – | –
O=C(O)c1ccc(-c2ccc(-n3ccnc3)cc2Cl)cc1 | 59 | – | – | – | – | – | – | – | – | –
FC(F)(F)c1cc(-c2nnn[nH]2)ccc1-c1ccc(-n2ccnc2)cc1 | 39 | – | – | – | – | – | – | – | – | –
Cc1cc(-c2nnn[nH]2)ccc1-c1ncc(-n2ccnc2)cc1Cl | 935 | – | – | – | – | – | – | – | – | –
Cc1cc(-n2ccnc2)ccc1-c1ccc(-c2nnn[nH]2)cc1 | 14 | 86 | 44 | 26 | 39 | 68 | 84 | 99 | 44 | –
N#Cc1ccc(-c2ccc(-c3nn[nH]n3)cc2)cc1 | – | – | – | – | – | – | – | – | – | inhibition [5]: 27%
Cc1nccn1-c1ccc(-c2ccc(-c3nnn[nH]3)cc2)cc1 | 97 | 18 | 37 | -2 | 10 | 82 | 33 | 63 | 92 | –
Cc1cc(-n2ccnc2)cnc1-c1ccc(-c2nnn[nH]2)cc1F | 14 | 60 | 12 | 19 | -15 | 53 | 45 | 100 | 42 | AUC(0-t) at 24 h [6]: 14200 ng·h/mL; half-life [7]: 1.9 h; Vd [8]: 2.8 L/kg; Kp [9]: 0.62; bioavailability [10]: 49%; clearance [11]: 17 mL/min/kg; half-life [12]: 5.3 h; Tmax [13]: 0.5 h; Cmax [14]: 2560 ng/mL
CCc1cc(-n2ccnc2)ccc1-c1ccc(-c2nnn[nH]2)cc1F | 11 | 78 | 52 | 30 | 41 | 80 | 88 | 97 | 78 | –
c1cn(-c2ccc(-c3ccc(-c4nn[nH]n4)cc3)cc2)cn1 | 22 | 77 | 73 | 54 | 74 | 58 | 69 | 66 | 31 | –
O=C(O)c1ccc(-c2ncc(-n3ccnc3)cc2Cl)cc1 | 89 | – | – | – | – | – | – | – | – | –
CCc1cc(-n2ccnc2)ccc1-c1ccc(-c2nnn[nH]2)cc1 | 6.1 | 94 | 37 | 33 | 56 | 71 | 86 | 100 | 58 | –
Fc1cc(-c2nnn[nH]2)ccc1-c1ncc(-n2ccnc2)cc1Cl | 27 | 50 | – | – | – | – | 42 | – | – | inhibition (INH) (Cytochrome P450 2D6): Not Active; inhibition (INH) (Cytochrome P450 3A4): Not Active; inhibition (INH) (Cytochrome P450 1A2): Not Active
c1cn(-c2cnc(-c3ccc(-c4nnn[nH]4)cc3)c(C3CCCCC3)c2)cn1 | 74 | – | – | – | – | – | – | – | – | –
O=C(O)c1ccc(-c2ccc(-n3ccnc3)cc2)c(Cl)c1 | 30 | – | – | – | – | – | – | – | – | –
CCc1cc(-n2ccnc2)cnc1-c1ccc(-c2nnn[nH]2)cc1 | 66 | – | – | – | – | – | – | – | – | –
Cc1cc(-n2ccnc2)ccc1-c1ccc(-c2nnn[nH]2)cc1Cl | 12 | 83 | 63 | 43 | 47 | – | 76 | – | – | –
O=C(O)c1ccc(-c2ccc(-n3ccnc3)cn2)cc1 | 214 | – | – | – | – | – | – | – | – | –
Clc1cc(-n2ccnc2)cnc1-c1ccc(-c2nnn[nH]2)cc1 | 20 | 64 | 11 | 1 | 20 | 39 | 42 | 83 | 19 | –
